From patent US20260248773A1, “POTASSIUM CHANNEL BLOCKERS OR DERIVATIVES THEREOF FOR PREVENTING, ALLEVIATING, AND/OR TREATING TISSUE DYSFUNCTION CAUSED BY TOXIC INSULTS” (priority 2022, published 2026)

What was measured:
[1] = tested on: CIPN; details: 0-10 point scale; cited from earlier work
[2] = tested on: chemotherapy-induced peripheral neuropathy (CIPN) caused by PTX; details: mouse, in vivo
Procedure: More specifically, initial studies were conducted on the specific case of CIPN as induced by exposure to PTX. […] 16 week old C73L/6 female mice were given a single dose of 35 mg/kg PTX (i.p.). Animals were separated into control (saline, i.p., n=4) or treatment group (2 mg/kg 4-AP daily, i.p., n=4). Pre-treatment Catwalk scores were compared to 21 days post-PTX injection.
To align with clinical treatments, mice were treated with a PTX dose of 35 mg/kg (equivalent to approximately 110 mg/m^2 and within the clinical treatment range) for four cycles, each three weeks apart.
The studies also included a 4-AP treatment arm (n=4) with a daily dose of 2 mg/kg 4-AP administered i.p. (as per most previous studies by MN and colleagues).
To evaluate detailed functional changes in gait, the CatWalk™ (Noldus Information Technology, Wageningen, The Netherlands) method was implemented.
Sciatic nerve samples were harvested and resin-embedded, sectioned and imaged using transmission electron microscopy. Images were analyzed to calculate markers of peripheral neuropathy, namely: axon counts, fiber size, myelination (g ratio), and circumferential irregularity (FIG. 2).

[3] = tested on: kidney; test: Kidney histology (H&E) after PTX with or without 4-AP (Example 8); type: in vivo, mice; details: PTX treated, daily saline
Procedure: To examine effects on the kidney histological studies were conducted on this tissue. Mice received PTX on day 0 of the experiment, and half of those mice also were injected with 4-AP at this time, and every day thereafter, at a dosage of 2 mg/kg. Mice not receiving 4-AP were injected with saline to control for any stress induced by daily injections. Experimental groups also included mice receiving no PTX treatment, and treated only with daily injections of saline. Mice were sacrificed after 1 week. Mice were perfused with 4% paraformaldehyde and kidneys were sectioned and stained with haematoxylin & eosin (H&E).

[4] = tested on: glial fibrillary acidic protein (GFAP); test: GFAP immunofluorescence in corpus callosum after PTX with or without 4-AP (Example 9); type: in vivo; details: E0771 tumor-bearing mice; PTX 35 mg/kg day one
Procedure: To determine whether 4-AP treatment can prevent PTX-induced increases in a reactive inflammatory response in the brain, as detected by increased expression of glial fibrillary acidic protein (GFAP), 16-week-old female C57BL/6 mice were inoculated with a triple negative murine breast cancer cell line E0771. When tumors were palpable, the mice were injected with either paclitaxel and water, 4-AP, both, or saline as a control. Paclitaxel (35 mg/kg) was injected on day one and 4-AP and water were injected daily. The mice were sacrificed on day nine and their brains were perfused and harvested. Brains were cryosectioned coronally.
The mouse brain sections were stained with anti-GFAP antibodies, followed by a fluorescent secondary, for analysis via immunofluorescence.

CNCC[C@H](Oc1cccc2ccccc12)c1cccs1 [duloxetine]
average reduction in pain [1]: 0.72 point

CC(=O)O[C@H]1C(=O)[C@@]2(C)[C@H]([C@H](OC(=O)c3ccccc3)[C@]3(O)C[C@H](OC(=O)[C@H](O)[C@@H](NC(=O)c4ccccc4)c4ccccc4)C(C)=C1C3(C)C)[C@]1(OC(C)=O)CO[C@@H]1C[C@@H]2O [PTX, paclitaxel]
tolerability of PTX dose [2]: tolerated the dose | kidney histology after PTX, H&E staining [3]: Loss of brush borders (dark grey arrows), nuclear dropout (grey arrow), and blebbing of tubular epithelial cells | expression of GFAP after PTX, corpus callosum [4]: increased expression of GFAP
